# Data published in patent US9796704B2, “Substituted quinazolines as receptor-type kinase inhibitors” (Symphony Evolution, Inc., priority 2002, dated 2017).
# pIC50: −log10 of the molar value.
# Molecular target: EGFR (Homo sapiens (Human), UniProt P00533)
# Test: EGFR kinase inhibition, luciferase-coupled chemiluminescent assay (LCCA)
# Conditions: read-out: EGFR IC50
# Sequence of EGFR (P00533 672-1210): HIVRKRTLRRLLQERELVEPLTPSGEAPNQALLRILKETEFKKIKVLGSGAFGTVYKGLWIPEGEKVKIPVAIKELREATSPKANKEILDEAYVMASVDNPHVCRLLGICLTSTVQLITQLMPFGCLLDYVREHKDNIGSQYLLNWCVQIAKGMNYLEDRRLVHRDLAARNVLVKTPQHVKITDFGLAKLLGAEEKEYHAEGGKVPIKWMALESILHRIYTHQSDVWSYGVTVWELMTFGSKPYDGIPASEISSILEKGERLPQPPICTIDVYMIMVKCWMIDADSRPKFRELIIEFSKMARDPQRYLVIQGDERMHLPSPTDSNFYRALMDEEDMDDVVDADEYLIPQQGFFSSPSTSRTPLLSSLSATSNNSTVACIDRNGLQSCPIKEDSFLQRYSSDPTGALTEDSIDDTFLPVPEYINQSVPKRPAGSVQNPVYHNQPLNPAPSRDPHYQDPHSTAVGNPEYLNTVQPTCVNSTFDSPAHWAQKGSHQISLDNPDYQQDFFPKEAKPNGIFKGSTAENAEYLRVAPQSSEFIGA
row,pIC50,Compound
1,> 7.30,"COc1cc2c(Nc3ccc(Br)c(Cl)c3F)ncnc2cc1O[C@@H]1CO[C@@H]2[C@H]1OC[C@H]2F [Example 102, 1,4:3,6-dianhydro-5-O-[4-[(4-bromo-3-chloro-2-fluorophenyl)amino]-6-(methyloxy)quinazolin-7-yl]-2-deoxy-2-fluoro-D-iditol]"
2,> 7.30,"COc1cc2c(Nc3cccc(Cl)c3C)ncnc2cc1O[C@@H]1CO[C@@H]2[C@H]1OC[C@H]2F [Example 110, 1,4:3,6-dianhydro-5-O-[4-[(3-chloro-2-methylphenyl)amino]-6-(methyloxy)quinazolin-7-yl]-2-deoxy-2-fluoro-D-iditol]"
3,> 7.30,"COc1cc2c(Nc3ccc(F)c(F)c3)ncnc2cc1O[C@@H]1CO[C@@H]2[C@H]1OC[C@H]2F [Example 111, 1,4:3,6-dianhydro-2-deoxy-5-O-[4-[(3,4-difluorophenyl)amino]-6-(methyloxy)quinazolin-7-yl]-2-fluoro-D-iditol]"
4,> 7.30,"COc1cc2c(Nc3ccccc3Cl)ncnc2cc1O[C@@H]1CO[C@@H]2[C@H]1OC[C@H]2F [Example 112, 1,4:3,6-dianhydro-5-O-[4-[(2-chlorophenyl)amino]-6-(methyloxy)quinazolin-7-yl]-2-deoxy-2-fluoro-D-iditol]"
5,> 7.30,"COc1cc2c(Nc3ccccc3F)ncnc2cc1O[C@@H]1CO[C@@H]2[C@H]1OC[C@H]2F [Example 113, 1,4:3,6-dianhydro-2-deoxy-2-fluoro-5-O-[4-[(2-fluorophenyl)amino]-6-(methyloxy)quinazolin-7-yl]-D-iditol]"
6,> 7.30,"COc1cc2c(Nc3ccc(Cl)cc3)ncnc2cc1O[C@@H]1CO[C@@H]2[C@H]1OC[C@H]2F [Example 116, 1,4:3,6-dianhydro-5-O-[4-[(4-chlorophenyl)amino]-6-(methyloxy)quinazolin-7-yl]-2-deoxy-2-fluoro-D-iditol]"
7,> 7.30,"COc1cc2c(Nc3ccc(Cl)c(C(F)(F)F)c3)ncnc2cc1O[C@@H]1CO[C@@H]2[C@H]1OC[C@H]2F [Example 121, 1,4:3,6-dianhydro-5-O-[4-{[4-chloro-3-(trifluoromethyl)phenyl]amino}-6-(methyloxy)quinazolin-7-yl]-2-deoxy-2-fluoro-D-iditol]"
8,> 7.30,"COc1cc2c(Nc3cccc(C(F)(F)F)c3F)ncnc2cc1O[C@@H]1CO[C@@H]2[C@H]1OC[C@H]2F [Example 123, 1,4:3,6-dianhydro-2-deoxy-2-fluoro-5-O-[4-{[2-fluoro-3-(trifluoromethyl)phenyl]amino}-6-(methyloxy)quinazolin-7-yl]-D-iditol]"
9,> 7.30,"COc1cc2c(Nc3cc(C(F)(F)F)ccc3Br)ncnc2cc1O[C@@H]1CO[C@@H]2[C@H]1OC[C@H]2F [Example 124, 1,4:3,6-dianhydro-5-O-[4-{[2-bromo-5-(trifluoromethyl)phenyl]amino}-6-(methyloxy)quinazolin-7-yl]-2-deoxy-2-fluoro-D-iditol]"
10,> 7.30,"COc1cc2c(Nc3ccc(F)cc3C(F)(F)F)ncnc2cc1O[C@@H]1CO[C@@H]2[C@H]1OC[C@H]2F [Example 126, 1,4:3,6-dianhydro-2-deoxy-2-fluoro-5-O-[4-{[4-fluoro-2-(trifluoromethyl)phenyl]amino}-6-(methyloxy)quinazolin-7-yl]-D-iditol]"
11,> 7.30,"COc1cc2c(Nc3ccccc3Br)ncnc2cc1O[C@@H]1CO[C@@H]2[C@H]1OC[C@H]2F [Example 128, 1,4:3,6-dianhydro-5-O-[4-[(2-bromophenyl)amino]-6-(methyloxy)quinazolin-7-yl]-2-deoxy-2-fluoro-D-iditol]"
12,> 7.30,"COc1cc2c(Nc3ccc(Br)cc3)ncnc2cc1O[C@@H]1CO[C@@H]2[C@H]1OC[C@H]2F [Example 130, 1,4:3,6-dianhydro-5-O-[4-[(4-bromophenyl)amino]-6-(methyloxy)quinazolin-7-yl]-2-deoxy-2-fluoro-D-iditol]"
13,> 7.30,"COc1cc2c(Nc3ccc(C)c(Br)c3)ncnc2cc1O[C@@H]1CO[C@@H]2[C@H]1OC[C@H]2F [Example 131, 1,4:3,6-dianhydro-5-O-[4-[(3-bromo-4-methylphenyl)amino]-6-(methyloxy)quinazolin-7-yl]-2-deoxy-2-fluoro-D-iditol]"
14,> 7.30,"COc1cc2c(Nc3cc(C)cc(C)c3)ncnc2cc1O[C@@H]1CO[C@@H]2[C@H]1OC[C@H]2F [Example 133, 1,4:3,6-dianhydro-2-deoxy-5-O-[4-[(3,5-dimethylphenyl)amino]-6-(methyloxy)quinazolin-7-yl]-2-fluoro-D-iditol]"
15,> 7.30,"COc1cc(Nc2ncnc3cc(O[C@@H]4CO[C@@H]5[C@H]4OC[C@H]5F)c(OC)cc23)c(OC)cc1Cl [Example 136, 1,4:3,6-dianhydro-5-O-[4-{[4-chloro-2,5-bis(methyloxy)phenyl]amino}-6-(methyloxy)quinazolin-7-yl]-2-deoxy-2-fluoro-D-iditol]"
16,> 7.30,"COc1cc2c(Nc3ccc(Cl)c(Cl)c3)ncnc2cc1OCC1CNCCO1 (stereo not drawn) [Example 144, N-(3,4-dichlorophenyl)-6-(methyloxy)-7-[(morpholin-2-ylmethyl)oxy]quinazolin-4-amine]"
17,> 7.30,"COc1cc2c(Nc3ccc(Cl)c(Cl)c3)ncnc2cc1OCC1CNCCCO1 (stereo not drawn) [Example 152, N-(3,4-dichlorophenyl)-6-(methyloxy)-7-[(1,4-oxazepan-2-ylmethyl)oxy]quinazolin-4-amine]"

row,pIC50,Compound
1,> 7.30,"COc1cc2c(Nc3ccc(Cl)c(Cl)c3)ncnc2cc1OCc1cccc2nsnc12 [Example 159, 7-[(2,1,3-benzothiadiazol-4-ylmethyl)oxy]-N-(3,4-dichlorophenyl)-6-(methyloxy)quinazolin-4-amine]"
2,> 7.30,"COc1cc2c(Nc3ccc(Cl)c(Cl)c3)ncnc2cc1OCc1nc2ccccc2s1 [Example 162, 7-[(1,3-benzothiazol-2-ylmethyl)oxy]-N-(3,4-dichlorophenyl)-6-(methyloxy)quinazolin-4-amine]"
3,> 7.30,"COc1cc2c(Nc3ccc(Cl)c(Cl)c3)ncnc2cc1OCc1cnn(-c2ccccc2)c1 [Example 165, N-(3,4-dichlorophenyl)-6-(methyloxy)-7-{[(1-phenyl-1H-pyrazol-4-yl)methyl]oxy}quinazolin-4-amine]"
4,> 7.30,"COc1cc2c(Nc3ccc(Cl)c(Cl)c3)ncnc2cc1OCc1nc(-c2ccc(Cl)cc2)no1 [Example 168, 7-({[3-(4-chlorophenyl)-1,2,4-oxadiazol-5-yl]methyl}oxy)-N-(3,4-dichlorophenyl)-6-(methyloxy)quinazolin-4-amine]"
5,> 7.30,"COc1cc2c(Nc3ccc(Cl)c(Cl)c3)ncnc2cc1OCc1c(OC)ccc2cc(Br)ccc12 [Example 169, 7-({[6-bromo-2-(methyloxy)naphthalen-1-yl]methyl}oxy)-N-(3,4-dichlorophenyl)-6-(methyloxy)quinazolin-4-amine]"
6,> 7.30,"COc1cc2c(Nc3ccc(Cl)c(Cl)c3)ncnc2cc1OCc1ccc(Cl)nc1 [Example 171, 7-{[(6-chloropyridin-3-yl)methyl]oxy}-N-(3,4-dichlorophenyl)-6-(methyloxy)quinazolin-4-amine]"
7,> 7.30,"COc1cc2c(Nc3ccc(Cl)c(Cl)c3)ncnc2cc1OCc1csc(C)n1 [Example 173, N-(3,4-dichlorophenyl)-6-(methyloxy)-7-{[(2-methyl-1,3-thiazol-4-yl)methyl]oxy}quinazolin-4-amine]"
8,> 7.30,"COc1cc2c(Nc3ccc(Cl)c(Cl)c3)ncnc2cc1OCc1cc(Cl)cc2c1OCOC2 [Example 174, 7-{[(6-chloro-4H-1,3-benzodioxin-8-yl)methyl]oxy}-N-(3,4-dichlorophenyl)-6-(methyloxy)quinazolin-4-amine]"
9,> 7.30,"COc1cc2c(Nc3ccc(Cl)c(Cl)c3)ncnc2cc1OCc1cc(-c2ccccc2)no1 [Example 177, N-(3,4-dichlorophenyl)-6-(methyloxy)-7-{[(3-phenylisoxazol-5-yl)methyl]oxy}quinazolin-4-amine]"
10,> 7.30,"COc1cc2c(Nc3ccc(Cl)c(Cl)c3)ncnc2cc1OCc1c(C)cc(C)cc1C [Example 178, N-(3,4-dichlorophenyl)-6-(methyloxy)-7-{[(2,4,6-trimethylphenyl)methyl]oxy}quinazolin-4-amine]"
11,> 7.30,"COc1ccc(-c2cc(COc3cc4ncnc(Nc5ccc(Cl)c(Cl)c5)c4cc3OC)on2)cc1 [Example 180, N-(3,4-dichlorophenyl)-6-(methyloxy)-7-[({3-[4-(methyloxy)phenyl]isoxazol-5-yl}methyl)oxy]quinazolin-4-amine]"
12,> 7.30,"COc1cc2c(Nc3ccc(Cl)c(Cl)c3)ncnc2cc1OCc1c(C(F)(F)F)nn(C)c1Oc1ccc(Cl)cc1Cl [Example 181, N-(3,4-dichlorophenyl)-7-({[5-[(2,4-dichlorophenyl)oxy]-1-methyl-3-(trifluoromethyl)-1H-pyrazol-4-yl]methyl}oxy)-6-(methyloxy)quinazolin-4-amine]"
13,> 7.30,"COc1cc2c(Nc3ccc(Cl)c(Cl)c3)ncnc2cc1OCc1noc(COCc2ccccc2)n1 [Example 211, N-(3,4-dichlorophenyl)-6-(methyloxy)-7-{[(5-{[(phenylmethyl)oxy]methyl}-1,2,4-oxadiazol-3-yl)methyl]oxy}quinazolin-4-amine]"
14,> 7.30,"CCN1CCC[C@H]1c1noc(COc2cc3ncnc(Nc4ccc(Cl)c(Cl)c4)c3cc2OC)n1 [Example 255, N-(3,4-dichlorophenyl)-7-[({3-[(2S)-1-ethylpyrrolidin-2-yl]-1,2,4-oxadiazol-5-yl}methyl)oxy]-6-(methyloxy)quinazolin-4-amine]"
15,> 7.30,"CCN1CCC[C@H]1c1nc(COc2cc3ncnc(Nc4ccc(Cl)c(Cl)c4)c3cc2OC)cs1 [Example 256, N-(3,4-dichlorophenyl)-7-[({2-[(2S)-1-ethylpyrrolidin-2-yl]-1,3-thiazol-4-yl}methyl)oxy]-6-(methyloxy)quinazolin-4-amine]"
16,> 7.30,"C=CCCCCN1CCOC(COc2cc3ncnc(Nc4ccc(Cl)c(Cl)c4)c3cc2OC)C1 (stereo not drawn) [Example 274, N-(3,4-dichlorophenyl)-7-{[(4-hex-5-en-1-ylmorpholin-2-yl)methyl]oxy}-6-(methyloxy)quinazolin-4-amine]"
